Source: patent US5750556A, “2-(aminomethyl)-3,4,7,9-tetrahydro-2H-pyrano-[2,3-E]indol-8-ones and derivatives” (priority 1996, dated 1998)

biological target: T1, dopamine autoreceptor (D2 Quin.) (Rattus norvegicus, UniProt P61169); experiment: [3H]-quinpirole binding, rat striatal homogenate (D2 Quin., dopamine autoreceptor affinity); conditions: homogenized rat striatal brain tissue, read-out: IC50 (nM) D2 Qmin.
T1 construct: homogenized rat striatal brain tissue is incubated; from tissue; host or cells: rat striatum, homogenate
T1 sequence (P61169 whole entry): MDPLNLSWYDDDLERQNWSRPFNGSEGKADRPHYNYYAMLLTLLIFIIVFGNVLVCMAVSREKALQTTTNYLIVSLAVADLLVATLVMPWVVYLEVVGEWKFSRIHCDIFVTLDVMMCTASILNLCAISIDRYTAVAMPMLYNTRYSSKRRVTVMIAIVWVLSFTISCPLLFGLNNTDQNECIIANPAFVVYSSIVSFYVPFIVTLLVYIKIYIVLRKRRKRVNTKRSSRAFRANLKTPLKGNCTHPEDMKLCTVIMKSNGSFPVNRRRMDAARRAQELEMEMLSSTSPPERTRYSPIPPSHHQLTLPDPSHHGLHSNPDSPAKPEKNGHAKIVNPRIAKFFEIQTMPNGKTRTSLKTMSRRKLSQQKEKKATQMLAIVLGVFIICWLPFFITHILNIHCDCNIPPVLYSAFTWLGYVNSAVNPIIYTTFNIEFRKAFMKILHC

| IC50 [nM] | SMILES |
| --- | --- |
| 0.65 | O=C1Cc2c(ccc3c2OC(CNCc2ccc(Cl)cc2)CC3)N1 (stereo not drawn) [Example 1e, 2-(4-Chloro-benzylamino-methyl)-3,4,7,9-tetrahydro-2H-pyrano[2,3-e]indol-8-one] |

biological target: T2, dopamine D2 receptor (Rattus norvegicus, UniProt P61169); experiment: [3H]-spiperidone binding, limbic brain homogenate (D2 Spiper); conditions: homogenized limbic brain tissue
T2 construct: from tissue; host or cells: limbic brain tissue, homogenate
Protocol: High affinity for the dopamine D2 receptor was established by the standard experimental test procedure of Fields, et al., Brain Res., 136, […] (1977) and Yamamura et al., ed., Neurotransmitter Receptor Binding, Raven Press, N.Y. (1978) wherein homogenized limbic brain tissue is incubated with [^3 H]-spiperidone at various concentrations of test compound, filtered washed, and shaken with Hydrofluor scintillation cocktail (National Diagnostics) and counted in a Packard 460 CD scintillation counter.

T2 sequence (P61169 whole entry): as above

| SMILES | IC50 [nM] |
| --- | --- |
| O=C1Cc2c(ccc3c2OC(CNCc2ccccc2)CC3)N1 (single isomer, unassigned; (+)) [Example 2a, (+)-2-(benzylamino-methyl)-3,4,9-tetrhydro-2H-pyrano[2,3-e]indol-8-one] | 734 |
| O=C1Cc2c(ccc3c2OC(CNCc2ccccc2)CC3)N1 (single isomer, unassigned; (-)) [Example 2b, (-)-2-(benzylamino-methyl)-3,4,7,9-tetrhydro-2H-pyrano[2,3-e]indol-8-one] | 71.5 |
| O=C1Cc2c(ccc3c2OC(CNCc2ccccc2)CC3)N1 (stereo not drawn) [Example 1a, 2-(Benzylamino-methyl)-3,4,7,9-tetrahydro-2H-pyrano-[2,3-e]indol-8-one] | 142 |
| Cc1ccc(CNCC2CCc3ccc4c(c3O2)CC(=O)N4)c(C)c1 (stereo not drawn) [Example 1f, 2-(2,4-Dimethyl-benzylamino-methyl)-3,4,7,9-tetrahydo-2H-pyrano[2,3-e]indol-8-one] | 392 |

Second part, the compound after the results:

| IC50 [nM] | SMILES |
| --- | --- |
| 310 | O=C1Cc2c(ccc3c2OC(CNCc2ccc(F)cc2)CC3)N1 (stereo not drawn) [Example 1b, 2-(4-Fluoro-benzylamino-methyl)-3,4,7,9-tetrahydro-2H-pyrano[2,3-e]indol-8-one] |
| 295 | COc1ccc(CNCC2CCc3ccc4c(c3O2)CC(=O)N4)cc1 (stereo not drawn) [Example 1c, 2-(4-Methoxy-benzylamino-methyl)-3,4,7,9-tetrahydro-2H-pyrano[2,3e]indol-8-one] |
| 103 | Cc1ccc(CNCC2CCc3ccc4c(c3O2)CC(=O)N4)cc1 (stereo not drawn) [Example 1d, 2-(4-Methyl-benzylamino-methyl)-3,4,7,9-tetrahydro-2H-pyrano[2,3-e]indol8-one] |
| 148 | O=C1Cc2c(ccc3c2OC(CNCc2ccc(Cl)cc2)CC3)N1 (stereo not drawn) [Example 1e, 2-(4-Chloro-benzylamino-methyl)-3,4,7,9-tetrahydro-2H-pyrano[2,3-e]indol-8-one] |
